In publication PMC8911826, “Design of Oligourea-Based Foldamers with Antibacterial and Antifungal Activities” (Molecules, 2022):
In brackets after ≈: the same amount, converted by molar mass. Where two headings read alike, the source gives them in different places. Marks after values point to notes of the source that are not given here.

What was measured:
[1] = tested on: Staphylococcus aureus S1 Methicillin Resistant (MRSA); format: cell-based
Method: (§1) Staphylococcus aureus (S. aureus, ATCC 25923), Staphylococcus aureus S1 Methicillin Resistant (MRSA; this strain was kindly provided by Dr Gilles Prévost, University of Strasbourg), Escherichia coli (E. coli, ATCC 25922), and Pseudomonas aeruginosa (P. aeruginosa, ATCC 27853) strains were used to assess the antibacterial properties of the samples. Bacterial strain was cultured aerobically at 37 °C in Mueller–Hinton broth (MHB) medium (Merck, Germany), pH 7.4. One colony was transferred to 10 mL of MHB medium and incubated at 37 °C for 20 h. To obtain bacteria in the mid logarithmic phase of growth, the absorbance at 620 nm of overnight culture was adjusted to 0.001, corresponding to a final density of 5 × 10^5 CFU/mL. Ninety percent of this culture was incubated with 10% of the test compound at different concentrations. The positive control was composed of 90% bacterial suspension and 10% a mixture of antibiotics (tetracycline: 10 μg/mL and cefotaxime: 0.1 μg/mL in PBS). The negative control was composed of 90% of the bacterial suspension and 10% of PBS, corresponding to our 100% growth.
(§2) In order to test the influence of serum on the minimal inhibitory concentration (MIC), we added 10% decomplemented fetal bovine serum or 50% nondecomplemented fetal bovine serum in MHB medium. After 24 h of incubation at 37 °C with shaking, the optical density at 620 nm of each well was measured. The smallest concentration for which bacterial growth is 0% corresponds to the MIC of the tested compound.

P. aeruginosa ATCC 27853 = format: cell-based, Pseudomonas aeruginosa; conditions: for MIC, P. aeruginosa ATCC 27853: MHB medium pH 7.4, 24 h, 100 μL, 5 × 10^5 CFU/mL, OD 620 nm, lowest concentration with 0% growth, mean of 3 samples
Method: as §1, §2

E. coli ATCC 25922 = format: cell-based, Escherichia coli
Method: as §1, §2

C. albicans ATCC 18804 = assay: Antifungal MIC assay in SAB, C. albicans; format: cell-based, Candida albicans
Method: The Candida albicans (C. albicans, ATCC 18804) strain was used to assess the antifungal properties of the samples. Briefly, C. albicans was cultured aerobically at 30 °C in Sabouraud dextrose broth (SAB) medium (Becton Dickinson, Voisins le Bretonneux, France). One colony was then transferred to 10 mL of SAB medium and incubated at 30 °C for 20 h. The absorbance at 620 nm of overnight culture was adjusted to 0.001 and the tests were performed under the same conditions as those used for bacteria, with the exception of the temperature (30 °C instead of 37 °C) and the culture medium (SAB instead of MHB).

S. aureus ATCC 25923 = format: cell-based, Staphylococcus aureus
Method: as §1, §2

S. aureus = conditions: 50% bovine serum; cited from earlier work
MDA-MB-231 cells [2] = tested on: MDA-MB-231 cells
Method: (§3) We used the human breast cancer cell line MDA-MB-231. The cells were cultured using RPMI that was supplemented with 100 units/mL penicillin, 100 µg/mL streptomycin, and 10% of fetal calf serum (FCS from HyClone, Fischer Scientific, Illkirch, France). The MDA-MB-231 cells were plated in 48-well plates one day before the experiments were conducted. The cell confluence was around 60% the day of the assay.
The membrane permeabilization activity was measured as the leakage of lactate dehydrogenase (LDH) from the cells. […] Thereby, foldamers were incubated with MDA-MB-231 cells and after incubation at 37 °C for 1 h and 10 min, an aliquot (50 μL) of the supernatant of each well was used for the measurement of the LDH activity. […] The LDH release was measured using a commercially available kit (CytoTox-ONE membrane integrity assay from Promega). Untreated cells were used as control. The value of 100% LDH release was obtained by using cells treated with a lysis buffer. Absorbance was measured at 490 nm (and at 680 nm for background).

MDA-MB-231 cells [3] = conditions: 24 h
Method: as §3
The cell viability was determined on MDA-MB-231 cells by performing the MTS assay (3-(4,5-dimethylthiazol-2-yl)-5-(3-carboxymethoxyphenyl)-2-(4-sulfophenyl)-2H-tetrazolium salt) (CellTiter 96® AQueous One Solution Cell Proliferation Assay from Promega). This assay was performed using biological triplicates (same amount of foldamer were added to 3 different wells). Increasing amounts of foldamer diluted in 250 μL/well of RPMI 10% FCS were added to the cells. After 24 h of incubation, the culture medium was removed and replaced with 300 μL/well of RPMI 10% FCS containing the MTS reagent (50 μL/well). After incubation at 37 °C for 1 h and 10 min, 200 μL of medium were withdrawn and used to measure the absorbance at 490 nm (and 680 nm for background). Untreated cells were used as control (100% of cell viability).

[4] = tested on: Aspergillus fumigatus 098; assay: Antifungal assay on spores, growth evaluated by microscopy; format: cell-based; conditions: 30 °C, 24 h without agitation, n = 3
Method: Aspergillus fumigatus strain (A. fumigatus, ASPFU098 from Dynamique des interactions hôte pathogène (DIHP) laboratory—EA 7292, Strasbourg) were tested to evaluate the antifungal properties of foldamers. Spores were resuspended at a concentration of 10^3 spores/mL in Sabouraud dextrose broth medium. Test samples were incubated with 90 μL of fungal spores. The suspension was incubated at 30 °C for 24 h without agitation. Fungal growth was monitored microscopically after 24 h. Media alone was used as negative control and corresponds to 100% fungal growth; voriconazole (50 μg/mL) was used as a positive control and corresponds to 100% growth inhibition.

[5] = MHB medium pH 7.4, 24 h, 37 °C, 100 μL, 5 × 10^5 CFU/mL, OD 620 nm, lowest concentration with 0% growth, mean of 3 samples
[6] = Table S2, MIC of Table 1 in μM, MHB, 24 h, 37 °C

Compound	MIC, MRSA [1, 5]	MIC, P. aeruginosa ATCC 27853 (P. aeruginosa ATCC 27853; 37 °C)	MIC, E. coli ATCC 25922 (E. coli ATCC 25922; [5])	MIC, S. aureus ATCC 25923 (S. aureus ATCC 25923; [5])	MIC, MRSA ([1]; S1 Methicillin Resistant, 24 h)	MIC, P. aeruginosa 27853 (P. aeruginosa ATCC 27853; ATCC 27853, 24 h)	MIC, E. coli 25922 (E. coli ATCC 25922; ATCC 25922, 24 h)	MIC, C. albicans 18804 (C. albicans ATCC 18804; ATCC 18804, 24 h)	MIC, S. aureus 25923 (S. aureus ATCC 25923; ATCC 25923, 24 h)	other results
CC(C)NC(=O)N[C@@H](CCCNC(=N)N)CNC(=O)N[C@H](CNC(=O)N[C@H](CNC(=O)N[C@H](CNC(=O)N[C@H](CNC(=O)N[C@H](CNC(=O)N[C@H](CNC(=O)N[C@@H](CCCNC(=N)N)CNC(=O)N[C@H](CCC(N)=O)C(C)C)Cc1c[nH]c2ccccc12)Cc1c[nH]cn1)C(C)C)Cc1c[nH]c2ccccc12)Cc1c[nH]cn1)C(C)C [OL-4]	6.25 µg/mL (≈ 3.86 µM)	50 µg/mL (≈ 30.9 µM)	6.25 µg/mL (≈ 3.86 µM)	6.25 µg/mL (≈ 3.86 µM)						MIC, MRSA [1, 6]: 3.86 μΜ; MIC, P. aeruginosa 27853 (P. aeruginosa ATCC 27853; [6]): 30.88 μΜ; MIC, E. coli 25922 (E. coli ATCC 25922; [6]): 3.86 μΜ; MIC, C. albicans 18804 (C. albicans ATCC 18804; Sabouraud dextrose broth (SAB), 24 h, 30 °C, 100 μL, OD 620 nm, n = 3): 12.5 µg/mL (≈ 7.72 µM); MIC, S. aureus 25923 (S. aureus ATCC 25923; [6]): 3.86 μΜ
CC(C)[C@H](N)CNC(=O)N[C@H](CNC(=O)N[C@H](CNC(=O)N[C@H](CNC(=O)N[C@@H](CCCNC(=N)N)CNC(=O)N[C@H](CNC(=O)N[C@@H](CCCNC(=N)N)CNC(=O)N[C@H](CCC(N)=O)C(C)C)Cc1c[nH]c2ccccc12)C(C)C)Cc1c[nH]c2ccccc12)Cc1c[nH]cn1 [OL-1]	50 µg/mL (≈ 36.6 µM)	12.5 µg/mL (≈ 9.14 µM)	12.5 µg/mL (≈ 9.14 µM)	12.5 * μg/mL	36.56 μΜ	9.14 μΜ	9.14 μΜ	12.5 µg/mL (≈ 9.14 µM)	9.14 μΜ	
CC(C)NC(=O)N[C@H](CNC(=O)N[C@H](CNC(=O)N[C@H](CNC(=O)N[C@H](CNC(=O)N[C@@H](CCCNC(=N)N)CNC(=O)N[C@H](CNC(=O)N[C@@H](CCCNC(=N)N)CNC(=O)N[C@H](CCC(N)=O)C(C)C)Cc1c[nH]c2ccccc12)C(C)C)Cc1c[nH]c2ccccc12)Cc1c[nH]cn1)C(C)C [OL-2]	12.5 µg/mL (≈ 8.6 µM)	25 µg/mL (≈ 17.2 µM)	6.25 µg/mL (≈ 4.3 µM)	6.25 µg/mL (≈ 4.3 µM)	8.6 μΜ	17.2 μΜ	4.3 μΜ	12.5 µg/mL (≈ 8.6 µM)	4.3 μΜ	
Pexiganan										Loss of activity in the presence of serum (S. aureus): 32 fold
CC(C)NC(=O)N[C@H](CNC(=O)N[C@H](CNC(=O)N[C@H](CNC(=O)N[C@H](CNC(=O)N[C@H](CNC(=O)N[C@H](CNC(=O)N[C@@H](CCCNC(=N)N)CNC(=O)N[C@H](CCC(N)=O)C(C)C)Cc1c[nH]c2ccccc12)Cc1c[nH]cn1)C(C)C)Cc1c[nH]c2ccccc12)Cc1c[nH]cn1)C(C)C [OL-3]	12.5 µg/mL (≈ 8.72 µM)	50 µg/mL (≈ 34.9 µM)	12.5 µg/mL (≈ 8.72 µM)	12.5 µg/mL (≈ 8.72 µM)	8.7 μΜ	34.8 μΜ	8.7 μΜ	12.5 µg/mL (≈ 8.72 µM)	8.7 μΜ	LDH leakage / alteration of the membranes (MDA-MB-231 cells [2]): least cytotoxic foldamer towards mammalian cells; MIC towards MRSA in the presence of 10% serum versus without ([1]; MHB supplemented with 10% decomplemented fetal calf serum, 24 h, 37 °C, mean of three samples): remained unaffected; Change of MIC towards MRSA in the presence of 50% serum ([1]; MHB supplemented with 50% nondecomplemented fetal calf serum, 24 h, 37 °C, mean of three samples): two to four-fold; IC50, cell viability (MTS) (MDA-MB-231 cells [3]): about 50 μg/mL; MIC, Aspergillus fumigatus 098 ([4]; spores in Sabouraud dextrose broth): below 50 μg/mL
CC(=O)N[C@@H](CCCNC(=N)N)C(=O)N[C@@H](Cc1c[nH]cn1)C(=O)N[C@@H](CCCNC(=N)N)C(=O)N[C@@H](Cc1c[nH]cn1)C(=O)N[C@@H](CCCNC(=N)N)C(=O)N[C@H](CNC(=O)N[C@H](CNC(=O)N[C@H](CNC(=O)N[C@H](CNC(N)=O)Cc1c[nH]c2ccccc12)C(C)C)Cc1c[nH]c2ccccc12)C(C)C [OL-7]										MIC, E. coli ATCC 25922 (E. coli ATCC 25922; ATCC 25922, 24 h, pH 7.4): ≥ 100 µg/mL; MIC, S. aureus ATCC 25923 (S. aureus ATCC 25923; ATCC 25923, 24 h, pH 7.4): ≥ 100 µg/mL
CC(C)NC(=O)N[C@H](CNC(=O)N[C@@H](CCCNC(=N)N)CNC(=O)N[C@H](CNC(=O)N[C@H](CNC(=O)N[C@@H](CCCNC(=N)N)CNC(=O)N[C@H](CNC(=O)N[C@@H](CCCNC(=N)N)CNC(=O)N[C@H](CCC(N)=O)C(C)C)Cc1c[nH]c2ccccc12)C(C)C)Cc1c[nH]c2ccccc12)C(C)C [OL-5]	6.25 µg/mL (≈ 4.25 µM)	12.5 µg/mL (≈ 8.49 µM)	6.25 µg/mL (≈ 4.25 µM)	12.5 µg/mL (≈ 8.49 µM)	4.25 μΜ	8.5 μΜ	4.25 μΜ	6.25 µg/mL (≈ 4.25 µM)	8.5 μΜ	
CC(=O)N[C@@H](CCCCN)C(=O)N[C@@H](Cc1c[nH]cn1)C(=O)N[C@@H](CCCCN)C(=O)N[C@@H](Cc1c[nH]cn1)C(=O)N[C@@H](CCCCN)C(=O)N[C@@H](C)CNC(=O)N[C@H](CNC(=O)N[C@@H](C)CNC(=O)N[C@H](CNC(N)=O)Cc1c[nH]c2ccccc12)Cc1c[nH]c2ccccc12 [OL-6]										MIC, E. coli ATCC 25922 (E. coli ATCC 25922; ATCC 25922, 24 h, pH 7.4): ≥ 100 µg/mL; MIC, S. aureus ATCC 25923 (S. aureus ATCC 25923; ATCC 25923, 24 h, pH 7.4): ≥ 100 µg/mL
C[C@@H](c1ncncc1F)[C@](O)(Cn1cncn1)c1ccc(F)cc1F [Voriconazole, reference compound]										MIC ([4]; Aspergillus fumigatus, 098, spores in Sabouraud dextrose broth): 12.5 µg/mL (≈ 35.8 µM)
